Assay results from US11572590B2, “Methods for evaluating tumor cell spheroids using 3D microfluidic cell culture device” (Dana-Farber Cancer Institute, Inc., priority 2017, dated 2023).
Where two headings read alike, the source gives them in different places.

Experiments:
Assay in all cases: SelectScreen Kinase Profiling, single point inhibition and IC50 for off-target kinases
Format in all cases: biochemical
off-target kinases [1] = target: off-target kinases (Homo sapiens, UniProt P06241)
off-target kinases [2] = target: off-target kinases (Homo sapiens, UniProt P10721, Y823D); details: KIT Y823D, LanthaScreen Binding
off-target kinases [3] = target: off-target kinases (Homo sapiens, UniProt P41279); details: MAP3K8 (COT), ZLYTE, ATP 100
off-target kinases [4] = target: T1, off-target kinases (Homo sapiens, UniProt P52564)
T1 sequence (P52564 1-334): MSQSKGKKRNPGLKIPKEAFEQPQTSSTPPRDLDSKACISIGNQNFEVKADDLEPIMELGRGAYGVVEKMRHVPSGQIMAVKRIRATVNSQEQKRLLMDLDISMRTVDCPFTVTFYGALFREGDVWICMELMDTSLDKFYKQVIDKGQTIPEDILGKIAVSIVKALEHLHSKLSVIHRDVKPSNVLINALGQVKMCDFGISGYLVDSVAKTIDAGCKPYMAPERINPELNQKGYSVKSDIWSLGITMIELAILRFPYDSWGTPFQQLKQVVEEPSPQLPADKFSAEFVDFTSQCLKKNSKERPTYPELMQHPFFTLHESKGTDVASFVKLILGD

off-target kinases [5] = target: off-target kinases (Homo sapiens, UniProt P53350); details: PLK1, ZLYTE, ATP Km app
off-target kinases [6] = target: off-target kinases (Homo sapiens, UniProt Q02763, R849W); details: TEK (TIE2) R849W, mutant y, LanthaScreen Binding
off-target kinases [7] = target: off-target kinases (Homo sapiens, UniProt Q16539); details: ZLYTE
off-target kinases [8] = target: off-target kinases (Homo sapiens, UniProt Q9BYT3); details: STK33, LanthaScreen Binding
off-target kinases [9] = target: off-target kinases (Homo sapiens, UniProt Q9HBH9); details: MKNK2 (MNK2), LanthaScreen Binding
off-target kinases [10] = target: off-target kinases (Homo sapiens, UniProt Q9NYL2); details: ZAK, LanthaScreen Binding
off-target kinases [11] = target: off-target kinases (Homo sapiens, UniProt Q9UK32); details: RPS6KA6 (RSK4), ZLYTE, ATP Km app
off-target kinases [12] = target: off-target kinases (Homo sapiens, UniProt Q9Y2K2); details: SIK3, LanthaScreen Binding
Sequence of off-target kinases (Homo sapiens, UniProt Q9Y2K2) (Q9Y2K2 whole entry): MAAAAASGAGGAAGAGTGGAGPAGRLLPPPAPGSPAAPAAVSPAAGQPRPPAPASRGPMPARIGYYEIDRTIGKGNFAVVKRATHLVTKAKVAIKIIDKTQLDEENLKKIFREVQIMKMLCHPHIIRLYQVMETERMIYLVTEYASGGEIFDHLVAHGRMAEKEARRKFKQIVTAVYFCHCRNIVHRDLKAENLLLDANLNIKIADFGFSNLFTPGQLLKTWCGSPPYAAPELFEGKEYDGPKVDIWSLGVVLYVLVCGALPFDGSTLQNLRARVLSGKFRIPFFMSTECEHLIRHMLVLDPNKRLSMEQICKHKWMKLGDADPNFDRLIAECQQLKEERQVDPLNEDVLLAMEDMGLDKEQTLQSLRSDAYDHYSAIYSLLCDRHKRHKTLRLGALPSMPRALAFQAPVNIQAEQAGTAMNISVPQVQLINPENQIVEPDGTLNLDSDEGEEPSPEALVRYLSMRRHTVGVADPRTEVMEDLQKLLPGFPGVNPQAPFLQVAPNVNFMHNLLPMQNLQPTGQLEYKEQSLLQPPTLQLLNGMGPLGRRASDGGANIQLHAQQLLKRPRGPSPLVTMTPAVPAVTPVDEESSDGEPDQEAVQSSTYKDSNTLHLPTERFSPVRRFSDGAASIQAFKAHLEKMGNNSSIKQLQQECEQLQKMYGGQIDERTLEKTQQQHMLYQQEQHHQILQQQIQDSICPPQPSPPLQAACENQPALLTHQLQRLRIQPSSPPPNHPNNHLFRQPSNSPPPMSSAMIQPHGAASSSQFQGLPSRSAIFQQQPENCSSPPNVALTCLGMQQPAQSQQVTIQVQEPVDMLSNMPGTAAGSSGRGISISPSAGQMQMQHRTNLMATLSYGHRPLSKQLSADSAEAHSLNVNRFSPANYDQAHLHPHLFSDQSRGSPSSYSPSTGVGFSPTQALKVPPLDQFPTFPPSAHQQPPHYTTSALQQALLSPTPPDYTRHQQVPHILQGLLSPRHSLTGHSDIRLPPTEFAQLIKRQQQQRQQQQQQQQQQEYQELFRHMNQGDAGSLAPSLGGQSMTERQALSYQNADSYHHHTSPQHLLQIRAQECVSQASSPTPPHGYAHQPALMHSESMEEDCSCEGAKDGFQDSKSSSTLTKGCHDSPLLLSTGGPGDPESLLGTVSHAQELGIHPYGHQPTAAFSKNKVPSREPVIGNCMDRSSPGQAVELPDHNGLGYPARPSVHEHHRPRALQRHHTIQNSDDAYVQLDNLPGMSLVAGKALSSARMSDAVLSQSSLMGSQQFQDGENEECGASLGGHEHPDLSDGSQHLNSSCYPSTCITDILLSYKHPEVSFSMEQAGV

Sequence of off-target kinases (Homo sapiens, UniProt P41279) (P41279 whole entry): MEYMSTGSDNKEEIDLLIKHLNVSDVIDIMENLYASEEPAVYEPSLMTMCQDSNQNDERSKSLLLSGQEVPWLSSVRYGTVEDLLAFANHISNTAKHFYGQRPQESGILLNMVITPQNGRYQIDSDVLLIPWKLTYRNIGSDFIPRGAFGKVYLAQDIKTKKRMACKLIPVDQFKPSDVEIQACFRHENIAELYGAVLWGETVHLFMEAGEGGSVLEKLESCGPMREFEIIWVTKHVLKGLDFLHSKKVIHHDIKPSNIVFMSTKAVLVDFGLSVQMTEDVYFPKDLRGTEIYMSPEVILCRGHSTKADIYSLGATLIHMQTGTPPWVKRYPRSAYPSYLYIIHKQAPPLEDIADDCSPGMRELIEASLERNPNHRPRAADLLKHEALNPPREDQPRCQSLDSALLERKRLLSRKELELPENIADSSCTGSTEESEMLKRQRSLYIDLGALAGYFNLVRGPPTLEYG
Sequence of off-target kinases (Homo sapiens, UniProt P53350) (P53350 whole entry): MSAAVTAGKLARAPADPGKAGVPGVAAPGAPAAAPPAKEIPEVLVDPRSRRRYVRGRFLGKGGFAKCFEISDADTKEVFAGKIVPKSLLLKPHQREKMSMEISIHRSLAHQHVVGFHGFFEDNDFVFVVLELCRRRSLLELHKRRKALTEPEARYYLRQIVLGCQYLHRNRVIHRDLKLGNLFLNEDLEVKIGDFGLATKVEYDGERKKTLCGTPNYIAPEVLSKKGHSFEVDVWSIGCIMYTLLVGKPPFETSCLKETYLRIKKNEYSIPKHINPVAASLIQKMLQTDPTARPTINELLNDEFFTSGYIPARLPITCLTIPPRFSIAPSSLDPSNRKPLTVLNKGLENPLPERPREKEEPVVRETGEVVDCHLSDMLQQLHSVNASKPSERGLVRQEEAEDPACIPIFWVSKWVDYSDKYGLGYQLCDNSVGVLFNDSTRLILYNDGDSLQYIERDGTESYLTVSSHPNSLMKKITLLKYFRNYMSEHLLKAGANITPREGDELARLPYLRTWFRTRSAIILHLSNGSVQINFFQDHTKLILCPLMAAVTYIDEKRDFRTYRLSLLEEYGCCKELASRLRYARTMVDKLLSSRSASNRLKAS
Sequence of off-target kinases (Homo sapiens, UniProt Q9UK32) (Q9UK32 whole entry): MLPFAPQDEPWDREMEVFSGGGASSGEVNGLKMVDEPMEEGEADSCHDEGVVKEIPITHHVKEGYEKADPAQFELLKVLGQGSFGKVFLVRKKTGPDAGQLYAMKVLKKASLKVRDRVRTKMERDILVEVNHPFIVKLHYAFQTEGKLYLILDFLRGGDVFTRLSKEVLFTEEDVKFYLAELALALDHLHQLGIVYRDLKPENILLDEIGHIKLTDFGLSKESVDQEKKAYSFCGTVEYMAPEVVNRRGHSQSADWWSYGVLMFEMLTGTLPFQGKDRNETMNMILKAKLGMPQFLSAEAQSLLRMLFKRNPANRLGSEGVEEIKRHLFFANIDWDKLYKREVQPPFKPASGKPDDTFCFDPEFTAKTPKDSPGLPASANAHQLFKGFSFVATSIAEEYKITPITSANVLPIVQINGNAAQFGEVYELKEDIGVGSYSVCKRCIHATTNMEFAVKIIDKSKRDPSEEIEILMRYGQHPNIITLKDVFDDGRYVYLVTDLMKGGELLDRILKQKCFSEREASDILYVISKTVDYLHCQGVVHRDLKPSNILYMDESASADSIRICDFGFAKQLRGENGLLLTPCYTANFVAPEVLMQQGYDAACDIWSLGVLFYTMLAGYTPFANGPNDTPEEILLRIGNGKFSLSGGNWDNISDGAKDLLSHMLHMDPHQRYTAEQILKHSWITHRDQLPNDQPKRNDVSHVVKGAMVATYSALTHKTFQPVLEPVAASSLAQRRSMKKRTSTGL
Sequence of off-target kinases (Homo sapiens, UniProt Q9BYT3) (Q9BYT3 whole entry): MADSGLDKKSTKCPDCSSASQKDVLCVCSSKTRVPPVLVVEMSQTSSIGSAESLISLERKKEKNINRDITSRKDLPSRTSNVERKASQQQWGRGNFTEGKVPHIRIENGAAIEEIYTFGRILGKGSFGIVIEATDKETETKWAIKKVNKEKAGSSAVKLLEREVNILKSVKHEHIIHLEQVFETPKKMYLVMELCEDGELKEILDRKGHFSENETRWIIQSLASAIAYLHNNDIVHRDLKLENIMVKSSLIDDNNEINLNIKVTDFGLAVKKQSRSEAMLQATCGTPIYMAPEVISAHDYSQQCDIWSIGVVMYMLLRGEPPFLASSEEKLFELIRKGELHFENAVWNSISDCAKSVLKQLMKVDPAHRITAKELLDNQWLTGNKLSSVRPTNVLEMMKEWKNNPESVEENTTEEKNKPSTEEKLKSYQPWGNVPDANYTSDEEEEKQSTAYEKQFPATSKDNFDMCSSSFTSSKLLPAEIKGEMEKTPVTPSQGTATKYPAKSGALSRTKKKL
Sequence of off-target kinases (Homo sapiens, UniProt Q9HBH9) (Q9HBH9 whole entry): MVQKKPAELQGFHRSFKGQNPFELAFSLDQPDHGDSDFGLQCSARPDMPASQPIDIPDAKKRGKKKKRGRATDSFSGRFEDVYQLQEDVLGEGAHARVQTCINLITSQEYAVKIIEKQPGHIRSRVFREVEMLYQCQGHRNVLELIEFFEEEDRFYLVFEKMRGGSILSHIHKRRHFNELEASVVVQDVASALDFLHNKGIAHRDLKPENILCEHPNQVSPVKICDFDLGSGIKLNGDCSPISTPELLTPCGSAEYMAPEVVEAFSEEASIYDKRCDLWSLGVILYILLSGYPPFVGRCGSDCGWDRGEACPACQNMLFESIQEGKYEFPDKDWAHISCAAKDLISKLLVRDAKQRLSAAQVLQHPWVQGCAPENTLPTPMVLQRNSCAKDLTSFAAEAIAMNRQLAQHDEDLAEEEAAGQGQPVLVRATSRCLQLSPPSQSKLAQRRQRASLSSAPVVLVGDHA
Sequence of off-target kinases (Homo sapiens, UniProt P10721, Y823D) (P10721 26-976 Y823D): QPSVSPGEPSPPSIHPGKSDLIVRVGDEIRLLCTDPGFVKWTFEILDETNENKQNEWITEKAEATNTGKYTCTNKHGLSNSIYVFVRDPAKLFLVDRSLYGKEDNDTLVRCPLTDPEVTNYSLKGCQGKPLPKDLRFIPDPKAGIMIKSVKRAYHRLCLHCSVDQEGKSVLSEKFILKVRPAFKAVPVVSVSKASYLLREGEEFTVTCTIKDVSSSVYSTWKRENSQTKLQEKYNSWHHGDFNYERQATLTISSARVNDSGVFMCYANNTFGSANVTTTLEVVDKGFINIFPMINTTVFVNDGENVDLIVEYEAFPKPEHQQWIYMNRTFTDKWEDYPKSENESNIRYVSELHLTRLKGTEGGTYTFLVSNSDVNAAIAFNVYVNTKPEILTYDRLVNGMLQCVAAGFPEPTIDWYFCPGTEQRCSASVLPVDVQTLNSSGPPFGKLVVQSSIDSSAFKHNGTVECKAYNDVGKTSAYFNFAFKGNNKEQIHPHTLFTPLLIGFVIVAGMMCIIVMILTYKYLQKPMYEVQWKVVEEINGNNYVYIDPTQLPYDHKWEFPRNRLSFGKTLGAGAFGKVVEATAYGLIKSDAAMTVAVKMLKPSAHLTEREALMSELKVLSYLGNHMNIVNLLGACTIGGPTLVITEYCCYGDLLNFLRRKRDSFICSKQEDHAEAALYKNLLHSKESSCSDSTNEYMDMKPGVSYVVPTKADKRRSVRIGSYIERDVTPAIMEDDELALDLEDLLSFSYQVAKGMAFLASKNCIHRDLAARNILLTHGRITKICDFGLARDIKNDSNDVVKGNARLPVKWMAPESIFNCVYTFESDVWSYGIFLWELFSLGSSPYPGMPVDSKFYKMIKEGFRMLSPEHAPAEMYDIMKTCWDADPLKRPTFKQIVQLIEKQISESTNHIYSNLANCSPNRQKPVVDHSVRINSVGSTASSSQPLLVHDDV

SMILES: N#Cc1cc(-c2ncnc(Nc3ccc(N4CCN(C5COC5)CC4)cc3)n2)ccc1OC1CCOCC1 [Compound 1, 5-(4-((4-(4-(oxetan-3-yl)piperazin-1-yl)phenyl)amino)-1,3,5-triazin-2-yl)-2-((tetrahydro-2H-pyran-4-yl)oxy)benzonitrile]
- inhibition (off-target kinases [1]; FYN A, LanthaScreen Binding, read-out: % Inhibition Avg): 18%
- inhibition (off-target kinases [1]; FYN, ATP Km app, ZLYTE, read-out: % Inhibition 1): 85%
- inhibition (off-target kinases [1]; FYN, ATP Km app, ZLYTE, read-out: % Inhibition 2): 85%
- inhibition (off-target kinases [1]; FYN, ATP Km app, ZLYTE, read-out: % Inhibition Avg): 85%
- inhibition (off-target kinases [2]; read-out: % Inhibition 1): 47%
- inhibition (off-target kinases [2]; read-out: % Inhibition 2): 59%
- inhibition (off-target kinases [2]; read-out: % Inhibition Avg): 53%
- inhibition (off-target kinases [3]; read-out: % Inhibition 1): 19%
- inhibition (off-target kinases [3]; read-out: % Inhibition 2): 11%
- inhibition (off-target kinases [3]; read-out: % Inhibition Avg): 15%
- inhibition (off-target kinases [4]; MAP2K6 (MKK6), LanthaScreen Binding, read-out: % Inhibition 2): 4%
- inhibition (off-target kinases [4]; MAP2K6 (MKK6), LanthaScreen Binding, read-out: % Inhibition Avg): 1%
- inhibition (off-target kinases [4]; MAP2K6 (MKK6), ZLYTE, ATP 100, read-out: % Inhibition 1): 0%
- inhibition (off-target kinases [4]; MAP2K6 (MKK6), ZLYTE, ATP 100, read-out: % Inhibition 2): 19%
- inhibition (off-target kinases [4]; MAP2K6 (MKK6), ZLYTE, ATP 100, read-out: % Inhibition Avg): 9%
- inhibition (off-target kinases [4]; read-out: % Inhibition 1): -2%
- inhibition (off-target kinases [5]; read-out: % Inhibition 1): 12%
- inhibition (off-target kinases [5]; read-out: % Inhibition 2): 9%
- inhibition (off-target kinases [5]; read-out: % Inhibition Avg): 11%
- inhibition (off-target kinases [6]; read-out: % Inhibition 1): 40%
- inhibition (off-target kinases [6]; read-out: % Inhibition 2): 41%
- inhibition (off-target kinases [6]; read-out: % Inhibition Avg): 41%
- inhibition (off-target kinases [7]; MAPK14 (p38 alpha) Direct, ATP Km app, read-out: % Inhibition 1): 2%
- inhibition (off-target kinases [7]; MAPK14 (p38 alpha) Direct, ATP Km app, read-out: % Inhibition 2): 1%
- inhibition (off-target kinases [7]; MAPK14 (p38 alpha) Direct, ATP Km app, read-out: % Inhibition Avg): 1%
- inhibition (off-target kinases [7]; MAPK14 (p38 alpha), ATP 100, read-out: % Inhibition 1): -1%
- inhibition (off-target kinases [7]; MAPK14 (p38 alpha), ATP 100, read-out: % Inhibition 2): 9%
- inhibition (off-target kinases [7]; MAPK14 (p38 alpha), ATP 100, read-out: % Inhibition Avg): 4%
- inhibition (off-target kinases [8]; read-out: % Inhibition 1): 59%
- inhibition (off-target kinases [8]; read-out: % Inhibition 2): 55%
- inhibition (off-target kinases [8]; read-out: % Inhibition Avg): 57%
- inhibition (off-target kinases [9]; read-out: % Inhibition 1): 86%
- inhibition (off-target kinases [9]; read-out: % Inhibition 2): 88%
- inhibition (off-target kinases [9]; read-out: % Inhibition Avg): 87%
- inhibition (off-target kinases [10]; read-out: % Inhibition 1): 6%
- inhibition (off-target kinases [10]; read-out: % Inhibition 2): 10%
- inhibition (off-target kinases [10]; read-out: % Inhibition Avg): 8%
- inhibition (off-target kinases [11]; read-out: % Inhibition 1): 14%
- inhibition (off-target kinases [11]; read-out: % Inhibition 2): 17%
- inhibition (off-target kinases [11]; read-out: % Inhibition Avg): 16%
- inhibition (off-target kinases [12]; read-out: % Inhibition 1): 98%
- inhibition (off-target kinases [12]; read-out: % Inhibition 2): 95%
- inhibition (off-target kinases [12]; read-out: % Inhibition Avg): 96%
